Literature values, collected in patent US8497371B2, “Pipemidic acid derivative autotaxin inhibitors” (University of Memphis Research Foundation, priority 2009, dated 2013).

Assays:
melanoma metastasis = conditions: micromolar concentrations; cited from earlier work
ATX = ATX (Homo sapiens, UniProt Q13822); set-up: conditioned serum-free medium (CCM) from MDA-MB-435 cells as the source of ATX; endogenous in cells; host or cells: MDA-MB-435 cells (about 10x concentrated serum-free conditioned medium); conditions: cited from earlier work

**Q.** For `O=[As](O)(O)c1ccc(Cc2ccc([As](=O)(O)O)cc2)cc1` [NSC 48300], which “inhibition of melanoma metastasis” value (melanoma metastasis) is on record?
**A.** ~100%

**Q.** And the “mechanism of inhibition (reported)” value (ATX)?
**A.** competitive
